{"source": "patent US8680059B2", "about": "“Oligopeptide acetate and formulations thereof” (Biotempt B.V., priority 1998, dated 2014)", "key": {"[1]": {"system": "BALB/c mice injected i.p. with LPS (E. coli 026:B6)", "assay": "LPS-induced septic shock (endotoxin model) in BALB/c mice", "assay_type": "in vivo, mouse", "parameters": "key to Sickness score of individual mouse: 0: No abnormalities.; 1: Percolated fur, but no detectable behavior differences compared to normal mice.; 2: Percolated fur, huddle reflex, responds to stimuli (such as tap on cage), just as active during handling as healthy mouse.; 3: Slower response to tap on cage, passive or docile when handled, but still curious when alone in a new setting.; 4: Lack of curiosity, little or no response to stimuli, quite immobile.; 5: Labored breathing, inability or slow to self-right after being rolled onto back (moribund, sacrificed).; Dead", "details": "for number of mice with sickness score 1 / number of mice with sickness score 2: peptide twice (t = 2 hr and 24 hr) 5 mg/kg; for Survival %: group of 6, 48 hrs", "method": "Mice used in sepsis or septic shock experiments: Female BALB/c mice of 8-12 weeks of age were used for all experiments. The animals were bred in our facility under specific pathogen-free conditions according to the protocols described in the Report of European Laboratory Animal Science Associations (FELASA) Working group on Animal Health (Laboratory Animals 28: 1-24, 1994).\nInjection protocols: For the endotoxin model, BALB/c mice were injected i.p. with 150-300 μg LPS (E. coli 026:B6; Difco Lab., Detroit, Mich., USA). Control groups were treated with PBS i.p. only. To test the effect of peptides, they were dissolved in PBS and injected i.p. at predetermined points in time after LPS treatment.\nMice were scored for sickness severity using the following measurement scheme: • 0 No abnormalities. • 1 Percolated fur, but no detectable behavior differences compared to normal mice. • 2 Percolated fur, huddle reflex, responds to stimuli (such as tap on cage), just as active during handling as healthy mouse. • 3 Slower response to tap on cage, passive or docile when handled, but still curious when alone in a new setting. • 4 Lack of curiosity, little or no response to stimuli, quite immobile. • 5 Labored breathing, inability or slow to self-right after being rolled onto back (moribund, sacrificed). • D Dead […]\nA comparative trial was set up to compare peptide MTR and SEQ ID NO:2. The comparative trial comprised 6 groups of 6 animals; two groups (1A and 1B) receiving placebo (PBS), one group (2) peptide MTR (source Pepscan, Lelystad, NL), one group (3) receiving peptide MTR (source Ansynth), one group (4) receiving peptide SEQ ID NO:2 (source Pepscan) and one group peptide SEQ ID NO:2 (source Ansynth). Peptide/placebo in these groups was administered 2 hours after LPS. LPS (source) was used at 10-11 mg/kg. Sickness scores were done at 0, 2, 22 26 42 and 48 hours after LPS injection."}, "[2]": {"system": "RAW 264.7 murine macrophage cell line", "assay": "Nitrite (NO) production in LPS-stimulated RAW 264.7 macrophages", "assay_type": "cell-based", "details": "co-stimulated with LPS 10 microg/ml, peptide even at 1 pg/ml, 24 hours", "method": "Cell culture. The RAW 264.7 murine macrophage cell line, obtained from American Type Culture Collection (Manassas, Va., USA), were cultured at 37° C. in 5% CO2 using DMEM containing 10% fetal calf serum (FCS), 50 U/ml penicillin, 50 μg/ml streptomycin, […] Na-pyruvate, 2 mM glutamine and 50 μM 2-mercaptoethanol (Bio Whittaker, Europe). The medium was changed every 2 days.\nNitrite measurements. Nitrite production was measured in the RAW 264.7 macrophage supernatants. The cells (7.5×10^5/ml) were cultured in 48-well plates in […] of culture medium. The cells were stimulated with LPS (10 microg/ml) and/or peptide (1 pg/ml, 1 ng/ml, 1 μg/ml) for 24 hours, then the culture media were collected. Nitrite was measured by adding 100 microl of Griess reagent (Sigma) to 100 microl samples of culture medium. The OD540 was measured using a microplate reader, and the nitrite concentration was calculated by comparison with the OD540 produced using standard solutions of sodium nitrite in the culture medium."}, "[3]": {"details": "5 mg/kg i.p. given both early (2 hours) or late (24 hours)"}}, "note": "“And” between values parts separate entries of the source, which are not always exact repeats. Equal entries are not always repeated."}
{"substance": "AQGV [tetrapeptide derived from human chorionic gonadotropin, alanine replacement of LQGV]", "values": [{"measurement": "clinical signs of shock at 84 hours after LPS-treatment", "setting": "[1]; [3]", "result": "no remaining clinical signs of shock"}, {"measurement": "survival at 84 hours after LPS-treatment", "setting": "[1]; [3]", "result": 100, "unit": "%"}, {"measurement": "number of mice with sickness score 1", "setting": "[1]; LPS dose 10.5, t = 24 hr", "result": 2}, {"measurement": "number of mice with sickness score 2", "setting": "[1]; LPS dose 10.5, t = 24 hr", "result": 3}, {"measurement": "number of mice with sickness score 1", "setting": "[1]; LPS dose 10.5, t = 48 hr", "result": 5}, {"measurement": "number of mice with sickness score 1", "setting": "[1]; LPS dose 11, t = 24 hr", "result": 2}, {"measurement": "number of mice with sickness score 2", "setting": "[1]; LPS dose 11, t = 24 hr", "result": 4}, {"measurement": "number of mice with sickness score 1", "setting": "[1]; LPS dose 11, t = 48 hr", "result": 6}, {"measurement": "% survival", "setting": "[1]; single injection 5 mg/kg 2 hours after LPS (300 μg), time 0 hours", "result": 100, "unit": "%"}, {"measurement": "% survival", "setting": "[1]; single injection 5 mg/kg 2 hours after LPS, time 14 hours", "result": 100, "unit": "%"}, {"measurement": "% survival", "setting": "[1]; single injection 5 mg/kg 2 hours after LPS, time 24 hours", "result": 100, "unit": "%"}, {"measurement": "% survival", "setting": "[1]; single injection 5 mg/kg 2 hours after LPS, time 48 hours", "result": 100, "unit": "%"}, {"measurement": "% survival", "setting": "[1]; single injection 5 mg/kg 2 hours after LPS, time 84 hours", "result": 100, "unit": "%"}, {"measurement": "% survival", "setting": "[1]; single injection 5 mg/kg 24 hours after LPS (300 μg), time 0 hours", "result": 100, "unit": "%"}, {"measurement": "% survival", "setting": "[1]; single injection 5 mg/kg 24 hours after LPS, time 14 hours", "result": 100, "unit": "%"}, {"measurement": "% survival", "setting": "[1]; single injection 5 mg/kg 24 hours after LPS, time 24 hours", "result": 100, "unit": "%"}, {"measurement": "% survival", "setting": "[1]; single injection 5 mg/kg 24 hours after LPS, time 48 hours", "result": 100, "unit": "%"}, {"measurement": "% survival", "setting": "[1]; single injection 5 mg/kg 24 hours after LPS, time 84 hours", "result": 100, "unit": "%"}, {"measurement": "Sickness score of individual mouse", "setting": "[1]; source Ansynth (#Ansynth 12/46) 2 hours after LPS 10-11 mg/kg, 0 hrs (before peptide)", "result": 0}, {"measurement": "Sickness score of individual mouse", "setting": "[1]; source Ansynth (#Ansynth 12/46) 2 hours after LPS 10-11 mg/kg, 2 hrs (at peptide administration)", "result": 2}, {"measurement": "Sickness score of individual mouse", "setting": "[1]; source Ansynth (#Ansynth 12/46) 2 hours after LPS 10-11 mg/kg, 22 hrs", "result": "3 (2×) and 2 (3×) and 4"}, {"measurement": "Sickness score of individual mouse", "setting": "[1]; source Ansynth (#Ansynth 12/46) 2 hours after LPS 10-11 mg/kg, 26 hrs", "result": "3 (2×) and 2 (3×) and 4"}, {"measurement": "Sickness score of individual mouse", "setting": "[1]; source Ansynth (#Ansynth 12/46) 2 hours after LPS 10-11 mg/kg, 42 hrs", "result": "2 and 3 and 1 (3×) and 5"}, {"measurement": "Sickness score of individual mouse", "setting": "[1]; source Ansynth (#Ansynth 12/46) 2 hours after LPS 10-11 mg/kg, 48 hrs", "result": "1 (5×) and dead"}, {"measurement": "Survival %", "setting": "[1]; source Ansynth (#Ansynth 12/46) 2 hours after LPS 10-11 mg/kg", "result": 83, "unit": "%"}, {"measurement": "Sickness score of individual mouse", "setting": "[1]; source Pepscan (#970/#971) 5 mg/kg 2 hours after LPS 10-11 mg/kg, 0 hrs (before peptide)", "result": 0}, {"measurement": "Sickness score of individual mouse", "setting": "[1]; source Pepscan (#970/#971) 5 mg/kg 2 hours after LPS 10-11 mg/kg, 2 hrs (at peptide administration)", "result": 2}, {"measurement": "Sickness score of individual mouse", "setting": "[1]; source Pepscan (#970/#971) 5 mg/kg 2 hours after LPS 10-11 mg/kg, 22 hrs", "result": "2 (4×) and 3 and 4"}, {"measurement": "Sickness score of individual mouse", "setting": "[1]; source Pepscan (#970/#971) 5 mg/kg 2 hours after LPS 10-11 mg/kg, 26 hrs", "result": "2 (3×) and 3 (2×) and 5"}, {"measurement": "Sickness score of individual mouse", "setting": "[1]; source Pepscan (#970/#971) 5 mg/kg 2 hours after LPS 10-11 mg/kg, 42 hrs", "result": "2 (5×) and dead"}, {"measurement": "Sickness score of individual mouse", "setting": "[1]; source Pepscan (#970/#971) 5 mg/kg 2 hours after LPS 10-11 mg/kg, 48 hrs", "result": "2 (3×) and 1 (2×)"}, {"measurement": "Survival %", "setting": "[1]; source Pepscan (#970/#971) 5 mg/kg 2 hours after LPS 10-11 mg/kg", "result": 83, "unit": "%"}, {"measurement": "NO production", "setting": "[2]", "result": "inhibited the production of NO"}]}
